In patent US9526730B2, “Use of a DPP-4 inhibitor in podocytes related disorders and/or nephrotic syndrome” (Boehringer Ingelheim International GmbH, priority 2012, dated 2016):

Experiments:
[1] = Meta-analysis of 13 phase 3 placebo-controlled trials: renal safety and outcomes in 5466 patients with type 2 diabetes
Description: The aim of this study was to evaluate renal safety/outcomes with linagliptin in phase 3, randomized, double-blind, placebo-controlled trials (≧12 wks).

[2] = Safety and tolerability in people with type 2 diabetes
[3] = test system: rats with 5/6 nephrectomy; experiment: Rat model of chronic kidney disease (5/6 nephrectomy), 130 days; details: for glomerulosclerosis (glomerulosclerosic index) / decrease of glomerular size vs PBO-treated 5/6 NX rats / decrease of interstitial fibrosis vs PBO-treated 5/6 NX rats: 130 days; for osteopontin vs PBO-treated 5/6 NX rats: plasma biomarker
[4] = Pooled analysis of seven placebo-controlled trials: UACR in elderly (>=65 years) T2D patients with diabetic nephropathy (set 2); type: in vivo, human
Method: (§1) Seven randomised, double-blind, placebo-controlled trials (duration 24-52 weeks) of linagliptin (5 mg q.d.) as monotherapy or add-on to various glucose-lowering background therapies had data available for urinary albumin-to-creatinine ratio (UACR) and were eligible for this analysis (n=4113). Data after 24 weeks of treatment were generated to allow pooling and two sets were defined: 1) Diabetic nephropathy in earlier stages of T2D (with and without oral glucose-lowering background therapies, such as e.g. linagliptin monotherapy, linagliptin add-on to metformin or linagliptin add-on to metformin plus a sulphonylurea, or linagliptin plus metformin initial combination): participants from four 24-week pivotal phase III trials if they had persistent albuminuria, defined as 30≦UACR≦3000 mg/g (eGFR>30 ml/min/1.73 m^2) and stable treatment with an angiotensin-converting enzyme inhibitor (ACEi) or angiotensin II receptor blocker (ARB) at baseline (ongoing treatment with ACEi or ARB); 2) Diabetic nephropathy in elderly patients (various glucose-lowering background therapies including insulin, such as e.g. linagliptin monotherapy, linagliptin add-on to metformin or linagliptin add-on to metformin plus a sulphonylurea, or linagliptin plus metformin initial combination, or linagliptin in combination with basal insulin): patients from all seven trials, fulfilling UACR criteria 30≦UACR≦3000 mg/g (eGFR>30 ml/min/1.73 m^2) and aged ≧65 years (with or without ongoing treatment with ACEi or ARB). The endpoint in both sets was the percentage change in geometric mean UACR after 24 weeks.

[5] = Pooled analysis of four 24-week placebo-controlled trials: albuminuria (UACR) in T2D patients with early diabetic nephropathy on stable ACE/ARB (set 1); type: in vivo, human
Description: Despite optimal therapy, people with type 2 diabetes (T2D) remain at high risk for kidney damage, manifest as albuminuria, and many develop progressive renal failure. Further, despite optimal therapy with inhibitors of the renin-angiotensin-aldosterone systeme (RAAS), patients with type 2 diabetes mellitus (T2DM) remain at an increased risk of progressive renal failure and cardiovascular disease, for which album inuria has emerged as a predictive biomarker. Linagliptin, a DPP-4 inhibitor, has previously shown evidence of albumin lowering on top of telmisartan in mice. We explored the clinical effect of linagliptin on albuminuria in T2D patients with early diabetic nephropathy. Four randomized, double-blind, 24-week, placebo-controlled trials of linagliptin (5 mg qd) on no, mono, or dual oral glucose-lowering background therapy (such as e.g. linagliptin monotherapy, linagliptin add-on to metformin or linagliptin add-on to metformin plus a sulphonylurea, or linagliptin plus metformin initial combination) had data available for urinary albumin-to-creatinine ratio (UACR) and were pooled for analysis (n=2472). Participants were included in this analysis if they had: i) 30≦UACR≦3000 mg/g creatinine; ii) stable treatment with ACE/ARBs ≧4 weeks prior and during the trial; and iii) eGFR>30 ml/min/1.73 m^2. The endpoint was the percentage change in geometric mean UACR. In this analysis, 492 (19.9%) patients met UACR and eGFR thresholds of whom 46% received stable ACE/ARB therapy (linagliptin n=168; placebo n=59). Mean baseline A1C and median UACR were 8.2% vs 8.5% and 76 vs 78 mg/g creatinine for the linagliptin and placebo groups, respectively. After 24 weeks, placebo-corrected changes in A1C and FPG were −0.71% and −26 mg/dl, respectively (both p<0.0001). […] Overall, kidney function and blood pressure were unchanged although more patients on placebo received new anti-hypertensive drugs (17% vs 11% with linagliptin). […] Linagliptin may have kidney-protective properties beyond glucose-lowering effects. This protective effect may be independent of race. Linagliptin may be useful for treating or lowering albuminuria on top of standard of care of angiotensin-converting enzyme (ACE) inhibition or angiotensin II receptor blockade (ARB) in T2DM patients with early diabetic nephropathy.
as §1

[6] = Pharmacokinetics of BI 1356, multiple oral doses once daily for 12 days in patients with type 2 diabetes; details: for feT,ss: steady state (Day 12); for feT,ss / fe0-24: gMean; for fe0-24: fraction excreted in urine
diabetic db/db mice = experiment: Diabetic nephropathy model: male diabetic db/db mice treated for 12 weeks (renal histology, immunohistochemistry, albumin excretion); type: in vivo, mouse; details: for effect on fasted or post-prandial glucose levels / Podocalyxin expression (glomerular staining score 0-3): 12 weeks; for Podocalyxin expression (glomerular staining score 0-3): linagliptin 3 mg/kg/day, enalapril 20 mg/kg/day, db/db vehicle 1.59±0.2, db/+ 2.65±0.1; for glomerular mesangial matrix expansion compared with diabetic vehicle / tubulointerstitial fibrosis compared with diabetic vehicle: histology
Method: The expression of podocalyxin is analyzed by immunohistochemistry using a podocalyxin specific antibody. Kidney sections from male diabetic db/db mice (10 weeks old at start and treated for 3 months) in the following groups are analyzed:
Diabetic control (n=10), linagliptin 3 mg/kg (n=8), enalapril 20 mg/kg (n=10) and heterozygous control mice (n=8).
All of the evaluations of the glomerular staining intensities are done semiquantitatively by two different experts of kidney pathology blinded for the slides.
The predefined scoring gradient is 0, 1, 2, and 3. 0 means no expression, whereas 3 is given when expression is highest. Group means are compared with a non-parametric test. P values less than 0.05 are considered significant.
Diabetic nephropathy is the main cause of end-stage renal disease. This study investigated the effects of linagliptin on diabetic nephropathy in severe insulin-resistant and old db/db mice as a model for diabetic nephropathy. Male diabetic db/db mice (10 weeks) were divided into 3 groups and treated for 12 weeks with vehicle (n=10), linagliptin 3 mg/kg/day (n=8), or the angiotensin converting enzyme (ACE) inhibitor enalapril 20 mg/kg/day (n=10).
Heterozygous db/+ mice treated with vehicle were used as controls (n=8). Levels of glucose, triglycerides, insulin, cystatin C and creatinine were analyzed in serum and urine samples at baseline and monthly thereafter. Body weight, urinary albumin excretion and OGTT were monitored periodically.
Renal histology (glomerulosclerosis, tubulointerstitial fibrosis) and expression of the sialoglycoprotein podocalyxin (a marker of podocyte integrity in the glomeruli, marker for glomerular damage), glucagon-like peptide 1 receptor (GLP-1R), alpha-smooth muscle actin and type I collagen were evaluated at the end of the study.

[7] = LIN 0.083 mg/kg in chow, TEL 5 mg/kg/d in drinking water
[8] = linagliptin 5 mg qd, after 24 weeks, set 1

SMILES: CC#CCn1c(N2CCC[C@@H](N)C2)nc2c1c(=O)n(Cc1nc(C)c3ccccc3n1)c(=O)n2C [linagliptin]
- patients with composite renal endpoint events (number) ([1]; linagliptin 5 mg qd, n=3505, placebo 306): 448 patients
- patients with composite renal endpoint events (proportion) ([1]; linagliptin 5 mg qd, placebo 15.6%): 12.8%
- HR for the composite endpoint ([1]; patients <65 yrs): 0.77
- HR for the composite endpoint ([1]; patients >65 yrs): 1.04
- RR change: ARF ([1]; vs placebo): −7%
- RR change: death ([1]; vs placebo): −23%
- RR change: macroalbuminuria ([1]; vs placebo): −12%
- RR change: microalbuminuria ([1]; vs placebo): −15%
- RR change: new onset of CKD ([1]; vs placebo): −56%
- RR change: worsening of CKD ([1]; vs placebo): −24%
- safety and tolerability [2]: placebo-like
- Blood pressure lowering ([3]; 5/6 NX rats): unaffected
- glomerulosclerosis (glomerulosclerosic index) ([3]; 5/6 NX rats): trend towards decreased
- decrease of glomerular size vs PBO-treated 5/6 NX rats [3, 7]: 18%
- decrease of interstitial fibrosis vs PBO-treated 5/6 NX rats [3, 7]: 48%
- osteopontin vs PBO-treated 5/6 NX rats [3]: decreases
- plasma concentration of B2M vs PBO-treated 5/6 NX rats ([3]; rat, in vivo): decreases
- plasma concentration of TIMP-1 vs PBO-treated 5/6 NX rats ([3]; rat, in vivo): decreases
- blood pressure and renal function ([4]; all seven studies): not affected to a clinically meaningful extent
- treatment duration at which overall UACR effect occurs ([4]; as early as): 12 weeks
- reduction of UACR versus placebo (trend) ([4]; linagliptin 5 mg q.d., 24 weeks, set 2): −25%
- lowering of adjusted UACR ([4]; linagliptin 5 mg q.d., 24 weeks, set 2, aged >=65 years): 30%
- kidney function and blood pressure ([5]; 24 weeks): unchanged
- lowering of adjusted UACR (geometric mean) ([5]; linagliptin 5 mg qd, 24 weeks, on stable ACE/ARB, set 1): 33%
- between group difference vs placebo in UACR ([5]; linagliptin 5 mg qd, 24 weeks, set 1): −29%
- placebo-corrected change in A1C (HbA1c) [5, 8]: −0.71%
- placebo-corrected change in FPG [5, 8]: -26 mg/dL
- placebo-corrected change in fasting plasma glucose [5, 8]: -1.4 mmol/L
- feT,ss ([6]; 1 mg oral once daily): 3.34%
- feT,ss ([6]; 2.5 mg oral once daily): 3.06%
- fe0-24 ([6]; 2.5 mg oral once daily): 0.139%
- feT,ss ([6]; 5 mg oral once daily): 6.27%
- fe0-24 ([6]; 5 mg oral once daily): 0.453%
- feT,ss ([6]; 10 mg oral once daily): 3.22%
- fe0-24 ([6]; 10 mg oral once daily): 0.919%
- mean accumulation ratio RA,AUC ([6]; doses above 1 mg once daily): ≤ 1.4
- excretion of unchanged drug ([6]; human, in vivo): primarily excreted unchanged via the bile
- excretion via the kidney ([6]; therapeutic oral dose levels): < 7 % of the administered oral dose
- main route of excretion ([6]; therapeutic oral dose levels): mainly excreted via the liver
- expression of α-smooth muscle actin-positive myofibroblasts in interstitium and glomeruli (diabetic db/db mice): normalized
- effect on fasted or post-prandial glucose levels (diabetic db/db mice): limited effects
- Podocalyxin expression (glomerular staining score 0-3) (diabetic db/db mice): 2.3±0.2
- loss of podocytes (podocalyxin staining) (diabetic db/db mice; blood glucose independent): significantly reduces
- glomerular mesangial matrix expansion compared with diabetic vehicle (diabetic db/db mice; p<0.05): reduced almost to control levels
- tubulointerstitial fibrosis compared with diabetic vehicle (diabetic db/db mice; p<0.05): reduced almost to control levels
- GLP-1R expression in the glomeruli (immunohistochemical staining) (diabetic db/db mice; linagliptin 3 mg/kg/day 12 weeks, vehicle db/db 1.67±0.07, healthy 2.15±0.1): 1.90±0.04
- Urinary albumin excretion rates compared with enalapril-treated mice (diabetic db/db mice; p<0.05): significantly decreased
- tubulointerstitial fibrosis compared with enalapril-treated mice (diabetic db/db mice; p<0.05): significantly decreased

SMILES: CCCc1nc2c(C)cc(-c3nc4ccccc4n3C)cc2n1Cc1ccc(-c2ccccc2C(=O)O)cc1 [telmisartan, reference compound]
- Blood pressure lowering ([3]; 5/6 NX rats): 31 mmHg
- TGF-β expression ([3]; 5/6 NX rats): significantly decreases
- glomerulosclerosis (glomerulosclerosic index) ([3]; 5/6 NX rats): trend towards decreased
- decrease of urinary albumin/creatinine ratio vs PBO-treated 5/6 NX rats [3, 7]: 92%
- decrease of glomerular size vs PBO-treated 5/6 NX rats [3, 7]: not significantly
- decrease of interstitial fibrosis vs PBO-treated 5/6 NX rats [3, 7]: 24%
- osteopontin vs PBO-treated 5/6 NX rats [3]: significantly decreases

SMILES: CCOC(=O)[C@H](CCc1ccccc1)N[C@@H](C)C(=O)N1CCC[C@H]1C(=O)O [enalapril, reference compound]
- effect on fasted or post-prandial glucose levels (diabetic db/db mice): limited effects
- Podocalyxin expression (glomerular staining score 0-3) (diabetic db/db mice): 2.4±0.2
- glomerular mesangial matrix expansion compared with diabetic vehicle (diabetic db/db mice; p<0.05): reduced almost to control levels
- tubulointerstitial fibrosis compared with diabetic vehicle (diabetic db/db mice; p<0.05): reduced almost to control levels
